Measurements taken from patent US12427134B2, “Methods of reducing the risk of cardiovascular events in a subject with atrial fibrillation and/or atrial flutter” (priority 2019, dated 2025).

Test system: hypertriglyceridemic patients with cardiovascular disease or at high risk for cardiovascular disease
Experiment: REDUCE-IT: treatment-emergent adverse events and serious adverse events (safety population)
Details: Safety population, N = 4089
Experimental: Specification of Variables and Procedures: Safety assessments included adverse events, clinical laboratory measurements (chemistry, hematology), 12-lead ECGs, vital signs (systolic and diastolic blood pressure, heart rate, respiratory rate, and body temperature), weight, waist circumference, and physical examinations as per Study Procedures in Table 1. […] All laboratory test results were evaluated by the investigator as to their clinical significance. Any observations at physical examinations or laboratory values considered by the investigator to be clinically significant were considered an adverse event.
An adverse event can therefore be any unfavorable and/or unintended sign (including an abnormal laboratory finding), symptom, or disease temporally associated with the use of an investigational medication product, whether or not related to the investigational medication product. All adverse events, including observed or volunteered problems, complaints, or symptoms, were recorded on the appropriate CRF. Each adverse event was evaluated for duration, intensity, and causal relationship with the study medication or other factors.
Adverse events, which included clinical laboratory test variables, were monitored from the time of informed consent until study participation was complete. Patients were instructed to report any adverse event that they experienced to the investigator. Beginning with Visit 2, investigators assessed for adverse events at each visit and recorded the event on the appropriate adverse event CRF.
Causality Assessment: The relationship of an adverse event to the administration of the study drug was assessed according to the following definitions: • No (unrelated, not related, no relation)—The time course between the administration of study drug and the occurrence or worsening of the adverse event rules out a causal relationship and another cause (concomitant drugs, therapies, complications, etc.) is suspected. • Yes (related, probably related, possibly related)—The time course between the administration of study drug and the occurrence or worsening of the adverse event is consistent with a causal relationship and no other cause (concomitant drugs, therapies, complications, etc.) can be identified.
Serious Adverse Events: A serious adverse event (SAE) is defined as an adverse event that meets any of the following criteria: • Results in death; • Is life-threatening—The term “life-threatening” in the definition of “serious” refers to an event in which the patient was at risk of death at the time of the event. […] Important medical events that may not result in death, be life threatening, or require hospitalization were considered an SAE when, based upon appropriate medical judgment, they may have jeopardized the patient and may have required medical or surgical intervention to prevent one of the outcomes listed above.
Analysis of Safety: All analyses of safety were conducted on the safety population, which was defined as all randomized patients. The safety assessment was based on the frequency of adverse events, physical exams, vital signs and safety laboratory tests. AEs with new onset during the study between the initiation of study drug and 30 days after the last dose of study drug for each patient was considered treatment-emergent (TEAEs). This included any AE with onset prior to initiation of study drug and increased severity after the treatment initiation.
This included overall incidence rates (regardless of severity and relationship to study drug), and incidence rates for moderate or severe adverse events. A summary of SAEs and adverse events leading to early discontinuation (for ≥30 days) were presented through data listings. Patients who restarted study drug were included in the summary of AEs leading to discontinuation.

## CC/C=C\C/C=C\C/C=C\C/C=C\C/C=C\CCCC(=O)OCC [AMR101, eicosapentaenoic acid ethyl ester]
  Serious adverse event - Anemia, n patients: 22
  Serious adverse event - Angina pectoris, % patients: (1.2) %
  Serious adverse event - Angina pectoris, n patients: 48
  Serious adverse event - Angina unstable, % patients: (1.0) %
  Serious adverse event - Angina unstable, n patients: 41
  Serious adverse event - Atrial fibrillation, % patients: (0.5) %
  Serious adverse event - Atrial fibrillation, n patients: 21
  Serious adverse event - Blood and lymphatic system disorders (SOC), % patients: (1.0) %
  Serious adverse event - Blood and lymphatic system disorders (SOC), n patients: 39
  Serious adverse event - Cardiac disorders (SOC), % patients: (4.7) %
  Serious adverse event - Cardiac disorders (SOC), n patients: 192
  Serious adverse event - Cardiac failure congestive, % patients: (0.5) %
  Serious adverse event - Cardiac failure congestive, n patients: 19
  Serious adverse event - Cellulitis, % patients: (0.9) %
  Serious adverse event - Cellulitis, n patients: 36
  Serious adverse event - Chest pain, % patients: (1.6) %
  Serious adverse event - Chest pain, n patients: 66
  Serious adverse event - Chronic obstructive pulmonary disease, % patients: (0.8) %
  Serious adverse event - Chronic obstructive pulmonary disease, n patients: 33
  Serious adverse event - Gastrointestinal disorders (SOC), % patients: (4.7) %
  Serious adverse event - Gastrointestinal disorders (SOC), n patients: 191
  Serious adverse event - Gastrointestinal hemorrhage, % patients: (0.6) %
  Serious adverse event - Gastrointestinal hemorrhage, n patients: 26
  Serious adverse event - General disorders and administration site conditions (SOC), % patients: (3.4) %
  Serious adverse event - General disorders and administration site conditions (SOC), n patients: 139
  Serious adverse event - Musculoskeletal and connective tissue disorders (SOC), % patients: (4.6) %
  Serious adverse event - Musculoskeletal and connective tissue disorders (SOC), n patients: 188
  Serious adverse event - Neoplasms benign, malignant, and unspecified (incl cysts and polyps) (SOC), % patients: (5.4) %
  Serious adverse event - Neoplasms benign, malignant, and unspecified (incl cysts and polyps) (SOC), n patients: 222
  Serious adverse event - Nervous system disorders (SOC), % patients: (2.5) %
  Serious adverse event - Nervous system disorders (SOC), n patients: 104
  Serious adverse event - Non-cardiac chest pain, % patients: (1.2) %
  Serious adverse event - Non-cardiac chest pain, n patients: 49
  Serious adverse event - Osteoarthritis, % patients: (2.0) %
  Serious adverse event - Osteoarthritis, n patients: 81
  Serious adverse event - Pneumonia, % patients: (2.6) %
  Serious adverse event - Pneumonia, n patients: 105
  Serious adverse event - Prostate cancer, % patients: (0.6) %
  Serious adverse event - Prostate cancer, n patients: 26
  Serious adverse event - Pulmonary embolism, % patients: (0.3) %
  Serious adverse event - Pulmonary embolism, n patients: 14
  Serious adverse event - Renal and urinary disorders (SOC), % patients: (2.9) %
  Serious adverse event - Renal and urinary disorders (SOC), n patients: 120
  Serious adverse event - Respiratory, thoracic, and mediastinal disorders (SOC), % patients: (3.5) %
  Serious adverse event - Respiratory, thoracic, and mediastinal disorders (SOC), n patients: 143
  Serious adverse event - Syncope, % patients: (0.7) %
  Serious adverse event - Syncope, n patients: 28
  Severe TEAE, %: (19.7) %
  Severe TEAE: Acute kidney injury, %: (0.7) %
  Severe TEAE: Acute respiratory failure, %: (0.5) %
  Severe TEAE: Angina pectoris, %: (0.2) %
  Severe TEAE: Angina unstable, %: (0.3) %
  Severe TEAE: Back pain, %: (0.5) %
  Severe TEAE: Cardiac disorders, %: (2.4) %
  Severe TEAE: Chest pain, %: (0.7) %
  Severe TEAE: Chronic obstructive pulmonary disease, %: (0.4) %
  Severe TEAE: General disorders and administration site conditions, %: (1.9) %
  Severe TEAE: Musculoskeletal and connective tissue disorders, %: (2.9) %
  Severe TEAE: Nervous system disorders, %: (1.9) %
  Severe TEAE: Osteoarthritis, %: (0.8) %
  Severe TEAE: Pneumonia, %: (1.5) %
  Severe TEAE: Renal and urinary disorders, %: (1.9) %
  Severe TEAE: Respiratory, thoracic, and mediastinal disorders, %: (2.5) %
  Severe TEAE: Syncope, %: (0.3) %
  Study Drug-Related Serious TEAE Leading to Withdrawal of Study Drug, %: (0.0) %
  Study Drug-Related Serious TEAE, %: (0.2) %
  Study Drug-Related TEAE Leading to Withdrawal of Study Drug, %: (3.4) %
  Study Drug-Related TEAE, %: (12.6) %
  Study drug-related TEAE leading to study drug withdrawal - Abdominal discomfort, % patients: (0.1) %
  Study drug-related TEAE leading to study drug withdrawal - Abdominal discomfort, n patients: 6
  Study drug-related TEAE leading to study drug withdrawal - Abdominal distension, % patients: (0.1) %
  Study drug-related TEAE leading to study drug withdrawal - Abdominal distension, n patients: 3
  Study drug-related TEAE leading to study drug withdrawal - Abdominal pain upper, % patients: (0.1) %
  Study drug-related TEAE leading to study drug withdrawal - Abdominal pain upper, n patients: 4
  Study drug-related TEAE leading to study drug withdrawal - Abdominal pain, % patients: (0.0) %
  Study drug-related TEAE leading to study drug withdrawal - Abdominal pain, n patients: 1
  Study drug-related TEAE leading to study drug withdrawal - Abnormal feces, % patients: (0.0) %
  Study drug-related TEAE leading to study drug withdrawal - Abnormal feces, n patients: 0
  Study drug-related TEAE leading to study drug withdrawal - Arthralgia, % patients: (0.2) %
  Study drug-related TEAE leading to study drug withdrawal - Arthralgia, n patients: 7
  Study drug-related TEAE leading to study drug withdrawal - Arthritis, % patients: (0.1) %
  Study drug-related TEAE leading to study drug withdrawal - Arthritis, n patients: 3
  Study drug-related TEAE leading to study drug withdrawal - Constipation, % patients: (0.1) %
  Study drug-related TEAE leading to study drug withdrawal - Constipation, n patients: 4
  Study drug-related TEAE leading to study drug withdrawal - Diarrhea, % patients: (1.0) %
  Study drug-related TEAE leading to study drug withdrawal - Diarrhea, n patients: 41
  Study drug-related TEAE leading to study drug withdrawal - Dyspepsia, % patients: (0.1) %
  Study drug-related TEAE leading to study drug withdrawal - Dyspepsia, n patients: 4
  Study drug-related TEAE leading to study drug withdrawal - Eructation, % patients: (0.1) %
  Study drug-related TEAE leading to study drug withdrawal - Eructation, n patients: 3
  Study drug-related TEAE leading to study drug withdrawal - Flatulence, % patients: (0.1) %
  Study drug-related TEAE leading to study drug withdrawal - Flatulence, n patients: 6
  Study drug-related TEAE leading to study drug withdrawal - Gastric disorder, % patients: (0.1) %
  Study drug-related TEAE leading to study drug withdrawal - Gastric disorder, n patients: 4
